Active and inactive are the calls of the source.
Experiments:
[1] = test system: HCC44; experiment: Cytotoxicity against human HCC44 cells assessed as reduction in cell viability incubated for 96 hrs by Cell-titer Glo reagent based assay; format: functional
[2] = test system: A549; experiment: Cytotoxicity against human A549 cells assessed as reduction in cell viability incubated for 96 hrs by Cell-titer Glo reagent based assay; format: functional
[3] = test system: Bacillus subtilis; experiment: Antibacterial activity against Bacillus subtilis assessed as zones of growth inhibition incubated for 24 hrs by […]; format: functional, organism-based
[4] = test system: Pseudomonas aeruginosa; experiment: Antibacterial activity against Pseudomonas aeruginosa assessed as zones of growth inhibition incubated for 24 hrs by […]; format: functional, organism-based
[5] = test system: HCC366; experiment: Cytotoxicity against human HCC366 cells assessed as reduction in cell viability incubated for 96 hrs by Cell-titer Glo reagent based assay; format: functional
[6] = species on record: Homo sapiens; experiment: Cytotoxicity against human HCC1171 cells assessed as reduction in cell viability incubated for 96 hrs by Cell-titer Glo reagent based assay; format: functional

CC(C)/C=C/C(=O)NC1=CC(=O)[C@]2(C)CC[C@H](C)N12
inactive: Activity [1] | Activity [2] | growth inhibition (GI) [3] | growth inhibition (GI) [4] | Activity [5] | Activity [6]

CC(C)=CC(=O)NC1=CC(=O)[C@]2(C)C=C[C@H](C)N12
inactive: Activity [1] | Activity [2] | growth inhibition (GI) [3] | growth inhibition (GI) [4] | Activity [5] | Activity [6]

CC(C)=Cc1nc(N2C(=O)C[C@H](O)[C@@H]2C)cc(=O)o1
inactive: Activity [1] | Activity [2] | growth inhibition (GI) [3] | growth inhibition (GI) [4] | Activity [5] | Activity [6]

CC(C)=Cc1nc(N2C(=O)CC[C@@H]2C)cc(=O)o1
inactive: Activity [1] | Activity [2] | growth inhibition (GI) [3] | growth inhibition (GI) [4] | Activity [5] | Activity [6]

C/C=C(\C)C(=O)NC1=CC(=O)[C@]2(C)CC[C@H](C)N12
inactive: Activity [1] | Activity [2] | growth inhibition (GI) [3] | growth inhibition (GI) [4] | Activity [5] | Activity [6]

C[C@H]1CC[C@@]2(C)C(=O)C=C(NC(=O)c3ccccc3)N12
inactive: Activity [1] | Activity [2] | growth inhibition (GI) [3] | growth inhibition (GI) [4] | Activity [5] | Activity [6]

CC(C)=CC(=O)NC1=CC(=O)[C@]2(C)[C@H](O)[C@@H](O)[C@H](C)N12
inactive: Activity [1] | Activity [2] | growth inhibition (GI) [3] | growth inhibition (GI) [4] | Activity [5] | Activity [6]

CC(C)=CC(=O)NC1=CC(=O)[C@@]2(O)CC[C@H](C)N12
inactive: Activity [1] | Activity [2] | growth inhibition (GI) [3] | growth inhibition (GI) [4] | Activity [5] | Activity [6]

— ChEMBL document CHEMBL3817749, “1,3-Oxazin-6-one Derivatives and Bohemamine-Type Pyrrolizidine Alkaloids from a Marine-Derived Streptomyces spinoverrucosus” (J Nat Prod, 2016)
